This passage reports EC50 results from US9481659B2, “Selective heterocyclic sphingosine 1 phosphate receptor modulators” (Celgene International II SÀRL, priority 2011, dated 2016).

Structures can show the parent of a compound that is named as a salt.

S1P1/EDG1, sequence (P21453 whole entry): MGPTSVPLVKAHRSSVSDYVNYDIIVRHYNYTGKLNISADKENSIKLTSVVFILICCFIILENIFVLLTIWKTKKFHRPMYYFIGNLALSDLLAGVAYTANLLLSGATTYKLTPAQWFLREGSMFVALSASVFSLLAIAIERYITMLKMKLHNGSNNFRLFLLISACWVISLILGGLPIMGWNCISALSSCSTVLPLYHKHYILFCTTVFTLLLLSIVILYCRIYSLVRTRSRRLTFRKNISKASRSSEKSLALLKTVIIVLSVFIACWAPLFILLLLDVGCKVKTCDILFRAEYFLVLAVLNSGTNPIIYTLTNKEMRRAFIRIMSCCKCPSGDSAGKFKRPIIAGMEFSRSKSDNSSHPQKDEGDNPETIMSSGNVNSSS

The test has as its target S1P1/EDG1 (Homo sapiens, UniProt P21453). As to the kind of experiment: S1P1 CRE-bla CHOK1 reporter assay, inhibition of Forskolin induced cAMP. As to conditions: agonist activity range; S1P1 CRE-bla CHOK1 cells, 2 μM Forskolin; read-out: S1P1 ACTIVITY
The format is cell-based. The protocol: Generation of S1P1-Mediated Inhibition of cAMP Reporter Assay
A mammalian expression plasmid containing S1P1/EDG1 cloned into pcDNA3.1 was purchased from Missouri S&T cDNA Resource Centre. […] S1P1/pcDNA3.1 was transfected into the CRE-bla CHO K1 (Invitrogen) cell line, and stable single cell clones were selected using standard techniques.
S1P1 CRE-Bla CHOK1 Reporter Assay—Characterization of S1P1 Agonists
Cells were seeded into 384-well black wall/clear bottom plates at 10^4 cells/well/19.5 μl assay media (DMEM-phenol free, 0.5% charcoal/dextran stripped serum, 2 mM glutamine, 0.1 mM NEAA, 1 mM Na-Pyruvate, 25 mM Hepes) and incubated for 18 hrs at 37° C. in 5% CO2. Dose response curves (10-point) were generated in 10 mM Hepes, 0.1% Pluronic F127, in the presence of Forskolin. Cells were treated with 0.5 μl compound in the presence of 2 μM Forskolin for 4 hrs at 37° C. The FRET-based β-lactamase fluorescent substrate (LiveBLAzer™-FRET B/G Loading Kit CC4-AM; Invitrogen) was prepared according to manufacturer's directions, and incubated with cells for 2 hrs at room temperature.
A general note: In a reporter assay the amount or activity of a reporter protein is the signal.
With `CC(C)Oc1ccc(-c2ncc(-c3cccc4c3CC[C@H]4NS(=O)(=O)CCN3CC[C@@H](O)C3)s2)cc1C#N` [Compound 133], the EC50 is 0.5 to 5 nM. On to `CC(C)Oc1ccc(-c2ncc(-c3cccc4c3CC[C@H]4NS(=O)(=O)CCN3CC[C@H](O)C3)s2)cc1C#N` [Compound 134], for which the EC50 was 0.5 to 5 nM. The figure for `CC(C)Oc1ccc(-c2ncc(-c3cccc4c3CC[C@H]4NS(=O)(=O)CCN3CC[C@@H](N)C3)s2)cc1C#N` [Compound 135] is over 5 nM; for `CC(C)Oc1ccc(-c2ncc(-c3cccc4c3CC[C@H]4NS(=O)(=O)CCN3CC[C@H](N)C3)s2)cc1C#N` [Compound 136] it is over 5 nM; for `CC(C)Oc1ccc(-c2ncc(-c3cccc4c3CC[C@H]4NS(=O)(=O)CCN3CCCCC3)s2)cc1C#N` [Compound 140] it is over 5 nM. The figure for `CC(C)Oc1ccc(-c2ncc(-c3cccc4c3CC[C@@H]4NS(=O)(=O)CCN3CCC[C@@H](O)C3)s2)cc1C#N` [Compound 141, N—((S)-4-(2-(3-cyano-4-isopropoxyphenyl)thiazol-5-yl)-2,3-dihydro-1H-inden-1-yl)-2-((R)-3-hydroxypiperidin-1-yl)ethanesulfonamide] is 0.5 to 5 nM; for `CC(C)Oc1ccc(-c2ncc(-c3cccc4c3CC[C@H]4NS(=O)(=O)CCN3CCC[C@@H](O)C3)s2)cc1C#N` [Compound 143, N—((R)-4-(2-(3-cyano-4-isopropoxyphenyl)thiazol-5-yl)-2,3-dihydro-1H-inden-1-yl)-2-((R)-3-hydroxypiperidin-1-yl)ethanesulfonamide] it is 0.5 to 5 nM; for `CC(C)Oc1ccc(-c2ncc(-c3cccc4c3CC[C@H]4NS(=O)(=O)CCN3CCC[C@H](O)C3)s2)cc1C#N` [Compound 144] it is 0.5 to 5 nM.

For the molecule `CC(C)Oc1ccc(-c2ncc(-c3cccc4c3CC[C@H]4NS(=O)(=O)CCN3CCC(O)CC3)s2)cc1C#N` [Compound 146], the EC50 lay within 0.5 to 5 nM. In the case of `CC(C)Oc1ccc(-c2ncc(-c3cccc4c3CC[C@H]4NS(=O)(=O)CCN3CCNCC3)s2)cc1C#N` [Compound 151], the EC50 is over 5 nM.

`COC(=O)CS(=O)(=O)N[C@@H]1CCc2c(-c3cnc(-c4ccc(OC(C)C)c(C#N)c4)s3)cccc21` [Compound 154, (R)-methyl 2-(N-(4-(2-(3-cyano-4-isopropoxyphenyl)thiazol-5-yl)-2,3-dihydro-1H-inden-1-yl)sulfamoyl)acetate]: the EC50 was in the range of 0.05 to 0.5 nM.

With `COC(=O)CCS(=O)(=O)N[C@@H]1CCc2c(-c3cnc(-c4ccc(OC(C)C)c(C#N)c4)s3)cccc21` [Compound 156], the EC50 is 0.05 to 0.5 nM.

With `CC(C)Oc1ccc(-c2ncc(-c3cccc4c3CC[C@H]4NS(=O)(=O)CC(=O)O)s2)cc1C#N` [Compound 158, (R)-2-(N-(4-(2-(3-cyano-4-isopropoxyphenyl)thiazol-5-yl)-2,3-dihydro-1H-inden-1-yl)sulfamoyl)acetic acid], the EC50 is under 0.05 nM.

Turning to `CC(C)Oc1ccc(-c2ncc(-c3cccc4c3CC[C@H]4NS(=O)(=O)CCC(=O)O)s2)cc1C#N` [Compound 160], the EC50 was under 0.05 nM. The figure for `CC(C)Oc1ccc(-c2ncc(-c3cccc4c3CC[C@H]4NS(=O)(=O)CCO)s2)cc1C#N` [Compound 164, (R)—N-(4-(2-(3-cyano-4-isopropoxyphenyl)thiazol-5-yl)-2,3-dihydro-1H-inden-1-yl)-2-hydroxyethanesulfonamide] is 0.05 to 0.5 nM; for `CC(C)Oc1ccc(-c2ncc(-c3cccc4c3CC[C@H]4NC(=O)N(C)C)s2)cc1C#N` [Compound 168] it is 0.05 to 0.5 nM. On to `CC(C)Oc1ccc(-c2ncc(-c3cccc4c3CC[C@H]4NC(=O)N3CC(O)C3)s2)cc1C#N` [Compound 171], for which the EC50 lay in the range of 0.05 to 0.5 nM.

Regarding `CC(C)Oc1ccc(-c2ncc(-c3cccc4c3CC[C@H]4NC(=O)N3CC[C@@H](O)C3)s2)cc1C#N` [Compound 174], the EC50 fell in the range of 0.05 to 0.5 nM. Regarding `CC(C)Oc1ccc(-c2ncc(-c3cccc4c3CC[C@H]4NC(=O)N3CC[C@H](O)C3)s2)cc1C#N` [Compound 177], the EC50 lay within 0.05 to 0.5 nM. The figure for `CC(C)Oc1ccc(-c2ncc(-c3cccc4c3CC[C@H]4NC(=O)N3CC[C@@H](N)C3)s2)cc1C#N` [Compound 178] is 0.05 to 0.5 nM. On to `CC(C)Oc1ccc(-c2ncc(-c3cccc4c3CC[C@H]4NC(=O)N3CC[C@H](N)C3)s2)cc1C#N` [Compound 179], for which the EC50 is 0.5 to 5 nM.

As to `CC(C)Oc1ccc(-c2ncc(-c3cccc4c3CC[C@H]4NC(=O)N3CC[C@H](N(C)C)C3)s2)cc1C#N` [Compound 182], the EC50 was in the range of 0.5 to 5 nM. The figure for `CC(C)Oc1ccc(-c2ncc(-c3cccc4c3CC[C@H]4NC(=O)N3CC[C@@H](N(C)C)C3)s2)cc1C#N` [Compound 183] is 0.5 to 5 nM; for `CC(C)Oc1ccc(-c2ncc(-c3cccc4c3CC[C@H]4NC(=O)N3CCNCC3)s2)cc1C#N` [Compound 188] it is 0.5 to 5 nM. `CC(C)Oc1ccc(-c2ncc(-c3cccc4c3CC[C@H]4NC(=O)N3CCN(C)CC3)s2)cc1C#N` [Compound 190]: the EC50 fell in the range of 0.5 to 5 nM. Turning to `CC(C)Oc1ccc(-c2ncc(-c3cccc4c3CC[C@H]4NC(=O)N3CCC(N(C)C)CC3)s2)cc1C#N` [Compound 192], the EC50 was over 5 nM. `CC(C)Oc1ccc(-c2ncc(-c3cccc4c3CC[C@H]4NC(=O)N3CCC(CO)CC3)s2)cc1C#N` [Compound 195]: the EC50 was in the range of 0.5 to 5 nM.

Take `CC(C)Oc1ccc(-c2ncc(-c3cccc4c3CC[C@@H]4NC(=O)N3CCC[C@@H](O)C3)s2)cc1C#N` [Compound 196]: the EC50 fell in the range of 0.5 to 5 nM. The same measure for `CC(C)Oc1ccc(-c2ncc(-c3cccc4c3CC[C@H]4NC(=O)N3CCC[C@H](O)C3)s2)cc1C#N` [Compound 197]: 0.5 to 5 nM. For `CC(C)Oc1ccc(-c2ncc(-c3cccc4c3CC[C@H]4NC(=O)N3CCC[C@@H](O)C3)s2)cc1C#N` [Compound 198], the EC50 was 0.05 to 0.5 nM.

With `CC(C)Oc1ccc(-c2ncc(-c3cccc4c3CC[C@H]4NC(=O)N3CCC[C@H](O)C3)s2)cc1C#N` [Compound 199], the EC50 lay in the range of 0.05 to 0.5 nM.

In the case of `CC(C)Oc1ccc(-c2ncc(-c3cccc4c3CC[C@H]4NC(=O)N3CCC(CC(=O)O)CC3)s2)cc1C#N` [Compound 200], the EC50 was in the range of 0.05 to 0.5 nM. As for `CC(C)Oc1ccc(-c2ncc(-c3cccc4c3CC[C@H]4NC(=O)N3CCC(O)CC3)s2)cc1C#N` [Compound 202], the EC50 is 0.5 to 5 nM. In the case of `COC(=O)CC1CCN(C(=O)N[C@@H]2CCc3c(-c4cnc(-c5ccc(OC(C)C)c(C#N)c5)s4)cccc32)CC1` [Compound 204], the EC50 lay in the range of 0.5 to 5 nM. The figure for `CC(C)Oc1ccc(-c2ncc(-c3cccc4c3CC[C@H]4NCCS(C)(=O)=O)s2)cc1C#N` [Compound 220, (R)-2-isopropoxy-5-(5-(1-((2-(methylsulfonyl)ethyl)amino)-2,3-dihydro-1H-inden-4-yl)thiazol-2-yl)benzonitrile] is 0.05 to 0.5 nM; for `CC(C)Oc1ccc(-c2nnc(-c3cccc4c3CCC[C@H]4N)s2)cc1C#N` [Compound 228, (R)-5-(5-(5-amino-5,6,7,8-tetrahydronaphthalen-1-yl)-1,3,4-thiadiazol-2-yl)-2-isopropoxybenzonitrile hydrochloride] it is 0.5 to 5 nM; for `CC(C)Oc1ccc(-c2nnc(-c3cccc4c3CCC[C@@H]4N)s2)cc1C#N` [Compound 229, (S)-5-(5-(5-amino-5,6,7,8-tetrahydronaphthalen-1-yl)-1,3,4-thiadiazol-2-yl)-2-isopropoxybenzonitrile hydrochloride] it is 0.5 to 5 nM.
